Here are results for 20 molecules from PMC6282443 (Journal of Enzyme Inhibition and Medicinal Chemistry, 2018).

Type in all cases: cell-based, human
The subject of assay [1] is H1975 cells. The settings on record: H1975, MTT.
For assay [2], the system named is HepG2 cells. Kind of assay: MTT anti-proliferative assay, HepG2. The note with it: Homo sapiens, HepG2, 72 h, read-out: Anti-proliferative activity IC50, HepG2.
Assay [3] relates to A549 cells. Kind of assay: cells. The note with it: Homo sapiens, A549, 72 h, read-out: Anti-proliferative activity IC50, A549.
Assay [4] has as its system MCF-7 cells. Kind of assay: MTT anti-proliferative assay, MCF-7. The note with it: Homo sapiens, MCF7, 72 h, read-out: Anti-proliferative activity IC50, MCF-7.

Consider `COc1cc2ncnc(Nc3ccc(F)c(Cl)c3)c2cc1NC(=O)N/N=C/c1ccc(N(C)C)cc1` [Compound 9, (E)-N-(4-((3-chloro-4-fluorophenyl)amino)-7-methoxyquinazolin-6-yl)-2-(4-(dimethylamino)benzylidene)hydrazine-1-carboxamide], for which the “inhibitory activity against H1975 cells (in words)” value (from here on “inhibitory activity”) in assay [1] was “poorer cellular activity”. Further, the IC50 in assay [2] was found to be 0.72 ± 0.19 µM; in assay [3], 2.84 ± 0.22 µM; in assay [4], 2.63 ± 0.16 µM.

On to `CN(C)c1ccc(/C=N/NC(=O)Nc2cc3c(Nc4ccc(F)c(Cl)c4)ncnc3cc2O[C@H]2CCOC2)cc1` [Compound 10, (S,E)-N-(4-((3-chloro-4-fluorophenyl)amino)-7-((tetrahydrofuran-3-yl)oxy)quinazolin-6-yl)-2-(4-(dimethylamino)benzylidene)hydrazine-1-carboxamide], for which the “inhibitory activity” value in assay [1] is “moderate inhibitory activity”. For the same molecule, the IC50 in assay [2] was 0.14 ± 0.08 µM; in assay [3] it was 1.51 ± 0.13 µM; in assay [4], 0.61 ± 0.12 µM.

As for `CCN(CC)c1ccc(/C=N/NC(=O)Nc2cc3c(Nc4ccc(F)c(Cl)c4)ncnc3cc2OC)cc1` [Compound 11, (E)-N-(4-((3-chloro-4-fluorophenyl)amino)-7-methoxyquinazolin-6-yl)-2-(4-(diethylamino)benzylidene)hydrazine-1-carboxamide], the half-maximal inhibitory concentration (IC50) in assay [2] came out at 11.5 ± 1.16 µM; in assay [3], 31.4 ± 2.12 µM; in assay [4], 15.4 ± 1.14 µM.

Regarding `CCN(CC)c1ccc(/C=N/NC(=O)Nc2cc3c(Nc4ccc(F)c(Cl)c4)ncnc3cc2O[C@H]2CCOC2)cc1` [Compound 12, (S,E)-N-(4-((3-chloro-4-fluorophenyl)amino)-7-((tetrahydrofuran-3-yl)oxy)quinazolin-6-yl)-2-(4-(diethylamino)benzylidene)hydrazine-1-carboxamide], the “inhibitory activity” value in assay [1] is reported as “moderate inhibitory activity”. In addition, the IC50 in assay [2] amounted to 0.31 ± 0.13 µM; in assay [3], 0.28 ± 0.12 µM; in assay [4] it was 0.35 ± 0.09 µM.

Turning to `O=C(N/N=C/c1ncc(N2CCOCC2)s1)Nc1cc2c(Nc3ccc(F)c(Cl)c3)ncnc2cc1O[C@H]1CCOC1` [Compound 13, (S,E)-N-(4-((3-chloro-4-fluorophenyl)amino)-7-((tetrahydrofuran-3-yl)oxy)quinazolin-6-yl)-2-((5-morpholinothiazol-2-yl)methylene)hydrazine-1-carboxamide], in assay [1], the “inhibitory activity” value is on record as “moderate inhibitory activity”. The concentration for half-maximal inhibition (IC50) in assay [2] was determined as 1.35 ± 0.31 µM; in assay [3], 1.48 ± 0.19 µM; in assay [4], 1.35 ± 0.14 µM.

Regarding `O=C(N/N=C/c1ccc(N2CCCC2)o1)Nc1cc2c(Nc3ccc(F)c(Cl)c3)ncnc2cc1O[C@H]1CCOC1` [Compound 15, (S,E)-N-(4-((3-chloro-4-fluorophenyl)amino)-7-((tetrahydrofuran-3-yl)oxy)quinazolin-6-yl)-2-((5-(pyrrolidin-1-yl)furan-2-yl)methylene)hydrazine-1-carboxamide], in assay [1], the “inhibitory activity” value is listed as “poorer cellular activity”. Also, the 50% inhibitory concentration (IC50) in assay [2] turned out to be 8.17 ± 0.98 µM; in assay [3], 10.5 ± 0.77 µM; in assay [4], 14 ± 0.78 µM.

As for `CN(C)c1ccc(/C=N/NC(=O)Nc2cc3c(Nc4ccc(F)c(Cl)c4)ncnc3cc2O[C@H]2CCOC2)s1` [Compound 16, (S,E)-N-(4-((3-chloro-4-fluorophenyl)amino)-7-((tetrahydrofuran-3-yl)oxy)quinazolin-6-yl)-2-((5-(dimethylamino)thiophen-2-yl)methylene)hydrazine-1-carboxamide], the “inhibitory activity” value in assay [1] is “poorer cellular activity”. Besides, the IC50 worked out at 2.43 ± 0.45 µM in assay [2], 2.5 ± 0.36 µM in assay [3] and 3.68 ± 0.49 µM in assay [4].

For the molecule `O=C(N/N=C/c1ccc(N2CCCC2)nc1)Nc1cc2c(Nc3ccc(F)c(Cl)c3)ncnc2cc1O[C@H]1CCOC1` [Compound 18, (S,E)-N-(4-((3-chloro-4-fluorophenyl)amino)-7-((tetrahydrofuran-3-yl)oxy)quinazolin-6-yl)-2-((6-(pyrrolidin-1-yl)pyridin-3-yl)methylene)hydrazine-1-carboxamide], the IC50 in assay [2] amounted to 5.81 ± 0.61 µM; in assay [3], 19.2 ± 1.46 µM; in assay [4], 12.4 ± 1.25 µM.

Turning to `COc1cc2ncnc(Nc3ccc(F)c(Cl)c3)c2cc1NC(=O)N/N=C/c1ccc(CN2CCCCC2)cc1` [Compound 22, (E)-N-(4-((3-chloro-4-fluorophenyl)amino)-7-methoxyquinazolin-6-yl)-2-(4-(piperidin-1-ylmethyl)benzylidene)hydrazine-1-carboxamide], the IC50 in assay [2] was 59.5 ± 4.75 µM; in assay [3] it was 24.2 ± 2.27 µM; in assay [4], 31.1 ± 2.55 µM.

Consider `COc1cc2ncnc(Nc3ccc(F)c(Cl)c3)c2cc1NC(=O)N/N=C/c1ccc(CN2CCOCC2)cc1` [Compound 23, (E)-N-(4-((3-chloro-4-fluorophenyl)amino)-7-methoxyquinazolin-6-yl)-2-(4-(morpholinomethyl)benzylidene)hydrazine-1-carboxamide], for which the IC50 in assay [2], in assay [3] and in assay [4] was over 100 µM each time.

Regarding `CCN(CC)Cc1ccc(/C=N/NC(=O)Nc2cc3c(Nc4ccc(F)c(Cl)c4)ncnc3cc2O[C@H]2CCOC2)cc1` [Compound 26, (S,E)-N-(4-((3-chloro-4-fluorophenyl)amino)-7-((tetrahydrofuran-3-yl)oxy)quinazolin-6-yl)-2-(4-((diethylamino)methyl)benzylidene)hydrazine-1-carboxamide], the values for the concentration for half-maximal inhibition (IC50) in assay [2], in assay [3] and in assay [4] were 53.6 ± 4.75 µM, 23.1 ± 1.54 µM and 36.9 ± 3.54 µM, respectively.

With `O=C(N/N=C/c1ccc(CN2CCCC2)cc1)Nc1cc2c(Nc3ccc(F)c(Cl)c3)ncnc2cc1O[C@H]1CCOC1` [Compound 27, (S,E)-N-(4-((3-chloro-4-fluorophenyl)amino)-7-((tetrahydrofuran-3-yl)oxy)quinazolin-6-yl)-2-(4-(pyrrolidin-1-ylmethyl)benzylidene)hydrazine-1-carboxamide], the IC50 in assay [2], in assay [3] and in assay [4] was over 100 µM throughout.

As for `O=C(N/N=C/c1ccc(CN2CCCCC2)cc1)Nc1cc2c(Nc3ccc(F)c(Cl)c3)ncnc2cc1O[C@H]1CCOC1` [Compound 28, (S,E)-N-(4-((3-chloro-4-fluorophenyl)amino)-7-((tetrahydrofuran-3-yl)oxy)quinazolin-6-yl)-2-(4-(piperidin-1-ylmethyl)benzylidene)hydrazine-1-carboxamide], the IC50 in assay [2] is 3.13 ± 0.45 µM; in assay [3], 2.25 ± 0.32 µM; in assay [4], 4.3 ± 0.63 µM.

With `O=C(N/N=C/c1ccc(CN2CCOCC2)cc1)Nc1cc2c(Nc3ccc(F)c(Cl)c3)ncnc2cc1O[C@H]1CCOC1` [Compound 29, (S,E)-N-(4-((3-chloro-4-fluorophenyl)amino)-7-((tetrahydrofuran-3-yl)oxy)quinazolin-6-yl)-2-(4-(morpholinomethyl)benzylidene)hydrazine-1-carboxamide], the half-inhibitory concentration (IC50) in assay [2], in assay [3] and in assay [4] was over 100 µM in each case.

Take `CN1CCN(Cc2ccc(/C=N/NC(=O)Nc3cc4c(Nc5ccc(F)c(Cl)c5)ncnc4cc3O[C@H]3CCOC3)cc2)CC1` [Compound 30, (S,E)-N-(4-((3-chloro-4-fluorophenyl)amino)-7-((tetrahydrofuran-3-yl)oxy)quinazolin-6-yl)-2-(4-((4-methylpiperazin-1-yl)methyl)benzylidene)hydrazine-1-carboxamide]: the IC50 in assay [2] came out at 17.5 ± 1.62 µM; in assay [3] it was 24.9 ± 1.66 µM; in assay [4], 21 ± 1.68 µM.

For `CCN(CC)CCCOc1ccc(/C=N/NC(=O)Nc2cc3c(Nc4ccc(F)c(Cl)c4)ncnc3cc2O[C@H]2CCOC2)cc1` [Compound 50, (S,E)-N-(4-((3-chloro-4-fluorophenyl)amino)-7-((tetrahydrofuran-3-yl)oxy)quinazolin-6-yl)-2-(4-(3-(diethylamino)propoxy)benzylidene)hydrazine-1-carboxamide], the IC50 worked out at 1.08 ± 0.17 µM in assay [2], 1.11 ± 0.14 µM in assay [3] and 1.23 ± 0.37 µM in assay [4].

For the molecule `O=C(N/N=C/c1ccc(OCCCN2CCCC2)cc1)Nc1cc2c(Nc3ccc(F)c(Cl)c3)ncnc2cc1O[C@H]1CCOC1` [Compound 51, (S,E)-N-(4-((3-chloro-4-fluorophenyl)amino)-7-((tetrahydrofuran-3-yl)oxy)quinazolin-6-yl)-2-(4-(3-(pyrrolidin-1-yl)propoxy)benzylidene)hydrazine-1-carboxamide], the IC50 in assay [2] was 17 ± 1.04 µM; in assay [3], 33.8 ± 1.14 µM; in assay [4], 28.5 ± 1.27 µM.

Consider `O=C(N/N=C/c1ccc(OCCCN2CCCCC2)cc1)Nc1cc2c(Nc3ccc(F)c(Cl)c3)ncnc2cc1O[C@H]1CCOC1` [Compound 52, (S,E)-N-(4-((3-chloro-4-fluorophenyl)amino)-7-((tetrahydrofuran-3-yl)oxy)quinazolin-6-yl)-2-(4-(3-(piperidin-1-yl)propoxy)benzylidene)hydrazine-1-carboxamide], for which the IC50 in assay [2] came to 2.28 ± 0.26 µM; in assay [3], 4.65 ± 0.39 µM; in assay [4] it was 2.56 ± 0.46 µM.

On to `O=C(N/N=C/c1ccc(OCCCN2CCOCC2)cc1)Nc1cc2c(Nc3ccc(F)c(Cl)c3)ncnc2cc1O[C@H]1CCOC1` [Compound 53, (S,E)-N-(4-((3-chloro-4-fluorophenyl)amino)-7-((tetrahydrofuran-3-yl)oxy)quinazolin-6-yl)-2-(4-(3-morpholinopropoxy)benzylidene)hydrazine-1-carboxamide], for which the IC50 in assay [2], in assay [3] and in assay [4] was over 100 µM each time.

For the molecule `CN1CCN(CCCOc2ccc(/C=N/NC(=O)Nc3cc4c(Nc5ccc(F)c(Cl)c5)ncnc4cc3O[C@H]3CCOC3)cc2)CC1` [Compound 54, (S,E)-N-(4-((3-chloro-4-fluorophenyl)amino)-7-((tetrahydrofuran-3-yl)oxy)quinazolin-6-yl)-2-(4-(3-(4-methylpiperazin-1-yl)propoxy)benzylidene)hydrazine-1-carboxamide], the values for the IC50 in assay [2], in assay [3] and in assay [4] were 41.2 ± 2.04 µM, 40 ± 2.14 µM and 38.4 ± 1.26 µM, respectively.
